{
  "source": "patent US11135252B2",
  "about": "“Probiotic therapies for developmental disorders and other neurological disorders” (Baylor College of Medicine, priority 2016, dated 2021)",
  "test_system": "oxytocin immunoreactivity in the PVN",
  "test": "Oxytocin immunofluorescence in the PVN of MHFD offspring",
  "assay_type": "in vivo, mice",
  "settings": "for oxytocin-positive cell number in the PVN: relative to heat-killed L. reuteri / control treatment",
  "method": "Lactobacillus reuteri MM4-1A (ATCC-PTA-6475) and Lactobacillus johnsonii (ATCC 33200) were cultured anaerobically in MRS broth in a 90% N2, 5% CO2, 5% H2 environment. L. reuteri was heat-killed by keeping the bacteria at 80° C. for 20 minutes (Wang et al., 2010). Bacterial viability was assessed by plating and the efficacy of the heat-kill procedure was confirmed by the absence of colony growth following plating. Cultures were centrifuged, washed, and resuspended in anaerobic solution (PBS) and frozen at −80° C. until use. PBS, live or heat-killed L. reuteri were added to the drinking water, which was changed daily to minimize dosage variability. Whereas the experimental group received live bacteria, one control group received identically prepared cultures of heat-killed bacteria. A second group of control mice received water treated with PBS alone. Live and heat-killed L. reuteri were supplied at a dosage of 1×10^8 organisms/mouse/day continuously in drinking water. Mice consumed the treated water ad libitum over the treatment period. The treated drinking water for each group was replaced daily two hours prior to the onset of the dark cycle to minimize variation in microbial exposure. Behavioral assays were initiated after 4-weeks of L. reuteri or control treatment. The protocol of the L. johnsonii preparation and administration matched the L. reuteri protocol. Fecal samples for sequencing and tissue used in the immunofluorescence studies were collected at the end of the treatment.\nMice were deeply anesthetized by inhalation of isoflurane and perfused transcardially with 10 ml 0.9% phosphate-buffered saline followed by 30 ml 4% paraformaldehyde in 0.1M phosphate buffer (PFA). […] Fluorescence intensity was measured in ImageJ (NIH) by selecting regions of interest (Oxytocin- and NeuN-positive hypothalamic cell bodies). Hypothalamic oxytocin-expressing neuronal population and NeuN+ cell number was assessed in ImageJ using the following operational sequence: (1) open image file, (2) subtract background, (3) adjust threshold, (4) convert to mask, (5) watershed, (6) analyze particles. […]",
  "data": [
    {"substance": "Lactobacillus reuteri MM4-1A (ATCC-PTA-6475) [L. reuteri]", "values": [
      {"measurement": "oxytocin immunofluorescence intensity in the PVN", "setting": "relative to heat-killed L. reuteri", "value": "significantly increased"},
      {"measurement": "oxytocin-positive cell number in the PVN", "value": "higher than in control-treated MHFD offspring"},
      {"measurement": "oxytocin-positive cell number in the PVN", "setting": "listed as live L. reuteri", "value": "significantly increased"}
    ]}
  ]
}
